Source: US6821735B1, “Protein involved in abscisic acid signalling” (Plant BioScience Limited, priority 1997, dated 2004)
“Also recorded” adds a separate entry of the source. Like-named read-outs stand apart in the source and are kept apart here.

Columns and labels:
[1] = test system: Xenopus Ca^2+-dependent Cl^− channels; test: ABA response of Xenopus oocytes injected with N. tabacum poly(A)+ RNA, two-electrode voltage clamp; format: cell-based, Xenopus laevis
[2] = cited from earlier work
SYR transcript = test: Northern analysis of SYR expression in leaves of treated plants
[3] = test system: inward-rectifying K^+ channels of guard cells; format: cell-based, N. benthamiana
[4] = test system: inward-rectifying K^+ channels of guard cells; conditions: stated as normal; cited from earlier work
[5] = test system: anion current of guard cells; format: cell-based, N. benthamiana
[6] = test system: inward-rectifying K^+ currents of guard cells; format: cell-based, V. faba; conditions: after 300 s
[7] = test system: outward-rectifying K^+ channels of guard cells; test: Guard cell voltage clamp: ABA response of the outward-rectifying K^+ current (IK,out); format: cell-based, Nicotiana
[8] = test system: current endogenous to the oocytes; test: Uninjected oocytes in 25 mM K^+: effect of channel inhibitors; conditions: 25 mM K^+ in the bath
[9] = test system: oocyte endogenous voltage-dependent K^+ channels; test: Voltage clamp of oocytes expressing SYR: current characterization and channel inhibitors; format: cell-based, Xenopus laevis; set-up: highest maximum value of outward-rectifying current: unit not given here; conditions: for reduction of the current in SYR expressing oocytes: toxin in Ringer at Table 3 concentration (TEA 30 mM, niflumic acid 1 mM)
[10] = Rabbit antisera raised against SYR peptides, tested by Western blot; format: in vivo; conditions: bleeds after injection
Description: Both, the purchased (SP1) and the purified (SP2) peptides were injected, each into two rabbits at the UKC animal facilities (University of Kent, Canterbury). Blood sera were taken after four weeks and the rabbits were injected a second time, After a second bleed two to three weeks later, the rabbits were injected a third time and killed while collecting blood from the heart two weeks later. SDS—PAGE and Western Blotting
Prior to hybridization with an antibody, the membrane was blocked with 1×TBS (0.15 M NaCl, 3 mM KCl, 25 mM Tris pH 7.4) and 5% Marvel (milk powder) for 1 h. Antibody hybridization occurred in the same buffer (1×TBS, 5% Marvel) plus 0.1% Tween and 0.1% azide overnight with a rabbit generated antibody with an estimated concentration of 1 ng/μl. The antibody solution was then poured off and stored in the fridge until needed again. The membrane was washed three times with 1×TBS and 0.1% Tween solution. […]

H440 yeast strain = test: Complementation of yeast strain H440 (SSO1 and SSO2 deleted) on galactose deficient medium; conditions: H440(SYR) on galactose deficient medium

In the case of CC1=CC(=O)CC(C)(C)[C@@]1(O)/C=C/C(C)=C\C(=O)O [ABA, abscisic acid], the “time for complete decay of the ABA-stimulated current” value ([1]; 20 μM ABA, mRNA injected oocyte) is reported as at most 5 min, the “response to a second ABA application” value ([1]; 2 of the 3 ABA responsive cells) is reported as “In neither case, a second response was detected” and the “increase of steady-state current evoked by ABA” value ([1]; at +60 mV, mRNA injected oocyte) is reported as over 3 μA. For the same molecule, the “number of cells showing the ABA response” value ([1]; of a total of 5 mRNA injected cells tested) was 3 cells, the “maximum amplitude of outward-rectifying Cl^− current in response to ABA” value ([1]; oocytes injected with N. tabacum poly(A)+ RNA) was 3.1 μA and the “response of water injected oocytes” value ([1]; water injected oocytes, n=8) was “did not respond”. For the same molecule, the pKa [2] was 4.8, the “SYR transcript level in leaves” value (SYR transcript; plants treated by spraying, ABA 20 μM, IAA 30 min) was “increased; also recorded: transient induction” and the “time of highest amount of SYR transcript after beginning of treatment” value (SYR transcript; second experiment, total RNA) was 30 min. The “inhibition of inward K^+ current in response to ABA” value [3] was “about 40%”, the “inward-rectifier current in ABA” value [3] was 24 % of the control and the “mean IK.in ABA normalized for IK.in before ABA” value ([3]; n=5) was 46 % of the original current. For the same molecule, the “inactivation of the inward-rectifying K+ channel current normally caused by ABA” value [4] was 40-60%, the “effect of ABA on instantaneous anion current of a control cell” value [5] was “four-fold increase” and the “stimulation of the Cl^− current amplitude” value [5] was 3 fold. For the same molecule, the “ABA induced increase of instantaneous anion current, mean, normalized to before ABA” value ([5]; n=3) was 3.5 fold, the “inhibition of IK,in by ABA” value [6] was about 80% and the “stimulation of the outward-rectifier current” value ([7]; 20 M ABA, 10 mM K+ outside) was about 2 fold.

With [Ba+2] [Ba^2+] the “effect on the current of uninjected oocytes, in words” value [8] was “a time-dependent one arose”, the “effect on the current in SYR expressing oocytes, in words” value [9] was “conversion of the instantaneous component into the time-dependent component” and the “reversibility of the toxin effect” value [9] was “Full recovery”.

For CC[N+](CC)(CC)CC [TEA, tetraethyl ammonium], the “effect on the current of uninjected oocytes, in words” value [8] was “invisible”, the “reversibility of the toxin effect” value ([9]; after wash-out) was “reversible” and the “reduction of the current in SYR expressing oocytes” value [9] was 50%.

For O=C(O)c1cccnc1Nc1cccc(C(F)(F)F)c1 [niflumic acid], the “effect on the current of uninjected oocytes, in words” value [8] was “abolished”, the “reversibility of the toxin effect” value ([9]; after wash-out) was “fully recovered” and the “reduction of the current in SYR expressing oocytes” value [9] was about 100%.

In the case of CC(=O)[O-].[K+] [potassium acetate], the “induction of outward Cl^− currents by weak acid control” value ([1]; 20 μM substituted for ABA, mRNA injected oocytes) is reported as “no response was observed”.

In the case of ω-conotoxin, the “effect on the current in SYR expressing oocytes, in words” value [9] is reported as “no effect was detected”.

B1: Sp2: truncated Nt-Syr protein, amino acids 1-279 of SEQ ID NO:2, N-His-tagged (protein, listed as Nicotiana tabacum)
chain: MNDLFSGSFSRFRADDQSDSHAIEMGDITGGVNLDKFFEDVEAIKDELKGLEKIYSQLQSSHEKSKTLHNAKAVKDLRSNMDNDVSMALKKAKFIKVRLEALDRSNAANRSLPGCGPGSSSDRTRTSVVNGLRKKLQESMNQFNELRQKMASEYRETVQRRYYTVTGENPDEAVLDTLISTGQSETFLQKAIQEQGRGQVMDTVMEIQERHEAVKELERNLKELHQVFLDMAVLVESQGAQLDDIESQVNRANSFVRGGAQQLQVARKHQKNTRKWTCF
modifications: N-terminal His tag
In the case of B1, the “ABA sensitivity of inward-rectifying K+ current after Sp2 loading” value [3] is reported as “complete loss of sensitivity to ABA”, the “recognition of the peptide by rabbit blood sera” value [10] is reported as “did cross-react with the peptide” and the “ABA sensitivity of outward-rectifying K+ current after Sp2 loading” value ([7]; microelectrodes containing 20 or 100 µM Sp2, 20 µM ABA) is reported as “complete loss of sensitivity to ABA”.

B2: SYR: syntaxin-related protein of N. tabacum, 300 amino acids, SEQ ID NO:2 (protein, listed as Nicotiana tabacum)
chain: MNDLFSGSFSRFRADDQSDSHAIEMGDITGGVNLDKFFEDVEAIKDELKGLEKIYSQLQSSHEKSKTLHNAKAVKDLRSNMDNDVSMALKKAKFIKVRLEALDRSNAANRSLPGCGPGSSSDRTRTSVVNGLRKKLQESMNQFNELRQKMASEYRETVQRRYYTVTGENPDEAVLDTLISTGQSETFLQKAIQEQGRGQVMDTVMEIQERHEAVKELERNLKELHQVFLDMAVLVESQGAQLDDIESQVNRANSFVRGGAQQLQVARKHQKNTRKWTCFAIILLLIIILVVVLSIQPWKK
In the case of B2, the “suppression of the SSO1/SSO2 mutation” value (H440 yeast strain) is reported as “could not suppress this mutation”, the “half time of increase in outward-rectifying current after impalement” value ([9]; 50 ng cRNA injected, +60 mV) is reported as 20 min and the “highest maximum value of outward-rectifying current” value ([9]; 50 ng cRNA injected, +60 mV) is reported as 3. The “reversal potential of the outward-rectifying current” value ([9]; [K^+]o 25 mM) was “around −35 mV”.
